Test results as given in patent US20150018301A1, “LRRK-2-Mediated Neuronal Toxicity” (THE JOHNS HOPKINS UNIVERSITY, priority 2009, published 2015).

Assays:
Assay type in all cases: biochemical
LRRK2 WT [1] = molecular target: T1, LRRK2 WT (Homo sapiens, UniProt Q5S007); assay: In vitro kinase assay: LRRK2 autophosphorylation; conditions: for IC50: mean of three experiments; for LRRK2 autophosphorylation Average ± SEM: compound 16 μM, phosphorylation normalized to absence of compound, mean ± S.E.M. of three experiments; for effect on LRRK2 autophosphorylation: screen at 16 μM
T1 sequence (Q5S007 whole entry): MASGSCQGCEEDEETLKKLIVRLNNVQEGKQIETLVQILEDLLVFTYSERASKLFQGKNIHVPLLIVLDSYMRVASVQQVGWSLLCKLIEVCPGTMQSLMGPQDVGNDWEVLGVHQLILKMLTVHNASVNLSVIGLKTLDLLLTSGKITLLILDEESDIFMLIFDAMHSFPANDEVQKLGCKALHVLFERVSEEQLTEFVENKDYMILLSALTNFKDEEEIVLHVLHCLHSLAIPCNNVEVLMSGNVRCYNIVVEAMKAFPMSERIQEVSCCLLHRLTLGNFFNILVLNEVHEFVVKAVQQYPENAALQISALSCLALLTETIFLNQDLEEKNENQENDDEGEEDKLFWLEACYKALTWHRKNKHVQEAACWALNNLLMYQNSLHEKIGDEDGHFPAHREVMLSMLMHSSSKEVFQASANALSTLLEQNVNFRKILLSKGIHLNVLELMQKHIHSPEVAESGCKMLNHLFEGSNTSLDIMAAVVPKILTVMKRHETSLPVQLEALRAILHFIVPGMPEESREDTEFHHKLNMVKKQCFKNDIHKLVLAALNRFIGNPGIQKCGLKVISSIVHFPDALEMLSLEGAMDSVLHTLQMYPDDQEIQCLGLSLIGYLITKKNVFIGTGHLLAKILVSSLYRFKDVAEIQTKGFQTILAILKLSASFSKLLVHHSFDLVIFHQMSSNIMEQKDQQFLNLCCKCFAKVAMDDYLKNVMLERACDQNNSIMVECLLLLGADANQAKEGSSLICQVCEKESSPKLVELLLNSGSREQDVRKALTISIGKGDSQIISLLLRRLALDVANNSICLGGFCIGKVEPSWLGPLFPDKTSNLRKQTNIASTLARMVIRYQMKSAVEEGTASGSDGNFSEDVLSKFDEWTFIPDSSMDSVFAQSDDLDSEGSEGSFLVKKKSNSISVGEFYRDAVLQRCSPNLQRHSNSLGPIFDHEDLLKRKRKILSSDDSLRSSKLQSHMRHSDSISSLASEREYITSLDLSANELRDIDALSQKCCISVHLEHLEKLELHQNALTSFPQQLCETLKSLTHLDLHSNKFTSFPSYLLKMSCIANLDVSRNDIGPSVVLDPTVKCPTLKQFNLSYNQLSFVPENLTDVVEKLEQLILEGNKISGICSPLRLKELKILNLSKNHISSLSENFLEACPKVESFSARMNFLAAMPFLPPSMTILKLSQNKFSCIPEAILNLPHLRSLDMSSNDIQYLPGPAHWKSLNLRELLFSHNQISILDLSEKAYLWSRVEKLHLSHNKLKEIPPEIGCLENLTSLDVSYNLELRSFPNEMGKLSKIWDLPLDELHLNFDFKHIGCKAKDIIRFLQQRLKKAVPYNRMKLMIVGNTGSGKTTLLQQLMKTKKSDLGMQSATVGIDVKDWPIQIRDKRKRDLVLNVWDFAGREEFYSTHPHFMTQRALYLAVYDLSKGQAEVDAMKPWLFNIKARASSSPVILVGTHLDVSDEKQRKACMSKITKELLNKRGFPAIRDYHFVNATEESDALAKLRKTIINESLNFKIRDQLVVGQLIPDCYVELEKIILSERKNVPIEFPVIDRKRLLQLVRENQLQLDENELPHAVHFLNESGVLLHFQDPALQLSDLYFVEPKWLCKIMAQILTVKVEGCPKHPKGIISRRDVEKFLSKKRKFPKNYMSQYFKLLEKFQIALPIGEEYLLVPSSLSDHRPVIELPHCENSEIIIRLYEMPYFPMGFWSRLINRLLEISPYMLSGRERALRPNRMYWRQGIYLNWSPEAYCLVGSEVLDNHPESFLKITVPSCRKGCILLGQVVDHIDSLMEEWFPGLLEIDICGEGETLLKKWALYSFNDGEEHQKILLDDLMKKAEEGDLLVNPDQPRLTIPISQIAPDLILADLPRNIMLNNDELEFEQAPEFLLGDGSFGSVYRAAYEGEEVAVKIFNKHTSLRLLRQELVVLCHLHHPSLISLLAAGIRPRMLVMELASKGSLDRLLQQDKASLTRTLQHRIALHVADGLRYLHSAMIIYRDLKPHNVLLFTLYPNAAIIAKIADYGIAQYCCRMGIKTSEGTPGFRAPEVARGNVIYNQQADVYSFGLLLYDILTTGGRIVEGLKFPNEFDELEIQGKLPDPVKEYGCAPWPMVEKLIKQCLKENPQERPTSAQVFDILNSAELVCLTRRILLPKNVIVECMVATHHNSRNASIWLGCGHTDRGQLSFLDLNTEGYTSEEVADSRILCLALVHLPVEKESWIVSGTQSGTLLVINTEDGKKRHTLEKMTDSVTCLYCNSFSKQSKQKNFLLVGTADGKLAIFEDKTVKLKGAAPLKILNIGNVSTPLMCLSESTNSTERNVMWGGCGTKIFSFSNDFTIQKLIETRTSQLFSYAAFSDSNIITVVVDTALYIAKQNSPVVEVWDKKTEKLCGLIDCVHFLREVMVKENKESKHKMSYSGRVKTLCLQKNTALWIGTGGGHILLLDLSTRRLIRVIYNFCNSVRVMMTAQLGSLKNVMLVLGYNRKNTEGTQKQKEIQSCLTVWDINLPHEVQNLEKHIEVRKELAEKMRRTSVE

LRRK2 WT [2] = molecular target: T1, LRRK2 WT; assay: In vitro kinase assay: LRRK2-mediated MBP phosphorylation; conditions: for IC50: mean of three experiments; for MBP phosphorylation Average ± SEM: compound 16 μM, 30° C., 15 min, normalized to absence of compound, mean ± S.E.M. of three experiments; for effect on LRRK2-mediated phosphorylation of MBP: screen at 16 μM
LRRK2 G2019S [3] = molecular target: T2, LRRK2 G2019S (Homo sapiens, UniProt Q5S007, G2019S); assay: In vitro kinase assay: G2019S LRRK2-mediated MBP phosphorylation; conditions: mean of three experiments
T2 sequence (Q5S007 whole entry G2019S): as the sequence (Q5S007 whole entry) above, with G2019S counted along it
Procedure: (§1) Transfection was performed by using Fugene HD reagent (Roche Applied Science) according to the manufacturer's instruction. For purification of recombinant LRRK1 and LRRK2 proteins, ACTA Purifier (GE Healthcare) FPLC system was used.
(§2) Resulting lysates were rotated at 4° C. for 30 min followed by centrifugation at 20,000×g for 15 min. The supernatants were injected into a GSTrap FF column pre-equilibrated with PBS at 0.5. mL/min flow after filtration using a 0.2 μm syringe filter (Corning). The bound proteins were eluted with buffer containing 10 mM GSH (Sigma), 150 mM NaCl, and 50 mM Tris-HCl (pH 8.0).
(§3) The in vitro kinase assay was performed as previously described. […] Recombinant LRRK2 and MBP or CST-4E-BP1 were combined before the kinase reaction. LRRK2 autophosphorylation is LRRK2 itself phosphorylation and MBP or GST-4E-BP1 phosphorylation is induced by LRRK2. After the kinase reaction, combined LRRK2 and MBP or GST-4E-BP1 were loaded on SDSPAGE and phosphorylated LRRK2 and MBP or GST-4E-BP1 could be detected separately an a single gel. Recombinant proteins and inhibitors were incubated at 30° C. in kinase assay buffer containing 20 mM Hepes (pH 7.4), 5 mM EGTA, and 20 mM β-glycerol phosphate. 0.5 μg MBP (Upstate) or 0.5 μg GST-4B-BP1, 50 μM ATP (Sigma), 20 mM MgCl2, and 1 μCi [γ-32P] ATP (PerkinElmer) was added after 5 min. The reaction was performed at 30° C. to reduce non-specific 32P incorporation for 15 min and terminated by the addition of 5×Laemmili sample buffer. […] Gels were stained by coomassie brilliant blue after fixation with 10% acetic acid and 40% methanol and then exposed to a Phosphoimager. Data were analyzed by ImageQuant 6.0 software.
(§4) To calculate the IC50 value, a dose-response curve was constructed and non-linear regression analysis using the equation for a sigmoid plot.

LRRK2 G2019S [4] = molecular target: T2, LRRK2 G2019S; assay: In vitro kinase assay: G2019S LRRK2 autophosphorylation; conditions: mean of three experiments
Procedure: as §1, §2, §3, §4

LRRK1 WT [5] = molecular target: T3, LRRK1 WT (Homo sapiens, UniProt Q38SD2); assay: In vitro kinase assay: LRRK1-mediated MBP phosphorylation
T3 sequence (Q38SD2 whole entry): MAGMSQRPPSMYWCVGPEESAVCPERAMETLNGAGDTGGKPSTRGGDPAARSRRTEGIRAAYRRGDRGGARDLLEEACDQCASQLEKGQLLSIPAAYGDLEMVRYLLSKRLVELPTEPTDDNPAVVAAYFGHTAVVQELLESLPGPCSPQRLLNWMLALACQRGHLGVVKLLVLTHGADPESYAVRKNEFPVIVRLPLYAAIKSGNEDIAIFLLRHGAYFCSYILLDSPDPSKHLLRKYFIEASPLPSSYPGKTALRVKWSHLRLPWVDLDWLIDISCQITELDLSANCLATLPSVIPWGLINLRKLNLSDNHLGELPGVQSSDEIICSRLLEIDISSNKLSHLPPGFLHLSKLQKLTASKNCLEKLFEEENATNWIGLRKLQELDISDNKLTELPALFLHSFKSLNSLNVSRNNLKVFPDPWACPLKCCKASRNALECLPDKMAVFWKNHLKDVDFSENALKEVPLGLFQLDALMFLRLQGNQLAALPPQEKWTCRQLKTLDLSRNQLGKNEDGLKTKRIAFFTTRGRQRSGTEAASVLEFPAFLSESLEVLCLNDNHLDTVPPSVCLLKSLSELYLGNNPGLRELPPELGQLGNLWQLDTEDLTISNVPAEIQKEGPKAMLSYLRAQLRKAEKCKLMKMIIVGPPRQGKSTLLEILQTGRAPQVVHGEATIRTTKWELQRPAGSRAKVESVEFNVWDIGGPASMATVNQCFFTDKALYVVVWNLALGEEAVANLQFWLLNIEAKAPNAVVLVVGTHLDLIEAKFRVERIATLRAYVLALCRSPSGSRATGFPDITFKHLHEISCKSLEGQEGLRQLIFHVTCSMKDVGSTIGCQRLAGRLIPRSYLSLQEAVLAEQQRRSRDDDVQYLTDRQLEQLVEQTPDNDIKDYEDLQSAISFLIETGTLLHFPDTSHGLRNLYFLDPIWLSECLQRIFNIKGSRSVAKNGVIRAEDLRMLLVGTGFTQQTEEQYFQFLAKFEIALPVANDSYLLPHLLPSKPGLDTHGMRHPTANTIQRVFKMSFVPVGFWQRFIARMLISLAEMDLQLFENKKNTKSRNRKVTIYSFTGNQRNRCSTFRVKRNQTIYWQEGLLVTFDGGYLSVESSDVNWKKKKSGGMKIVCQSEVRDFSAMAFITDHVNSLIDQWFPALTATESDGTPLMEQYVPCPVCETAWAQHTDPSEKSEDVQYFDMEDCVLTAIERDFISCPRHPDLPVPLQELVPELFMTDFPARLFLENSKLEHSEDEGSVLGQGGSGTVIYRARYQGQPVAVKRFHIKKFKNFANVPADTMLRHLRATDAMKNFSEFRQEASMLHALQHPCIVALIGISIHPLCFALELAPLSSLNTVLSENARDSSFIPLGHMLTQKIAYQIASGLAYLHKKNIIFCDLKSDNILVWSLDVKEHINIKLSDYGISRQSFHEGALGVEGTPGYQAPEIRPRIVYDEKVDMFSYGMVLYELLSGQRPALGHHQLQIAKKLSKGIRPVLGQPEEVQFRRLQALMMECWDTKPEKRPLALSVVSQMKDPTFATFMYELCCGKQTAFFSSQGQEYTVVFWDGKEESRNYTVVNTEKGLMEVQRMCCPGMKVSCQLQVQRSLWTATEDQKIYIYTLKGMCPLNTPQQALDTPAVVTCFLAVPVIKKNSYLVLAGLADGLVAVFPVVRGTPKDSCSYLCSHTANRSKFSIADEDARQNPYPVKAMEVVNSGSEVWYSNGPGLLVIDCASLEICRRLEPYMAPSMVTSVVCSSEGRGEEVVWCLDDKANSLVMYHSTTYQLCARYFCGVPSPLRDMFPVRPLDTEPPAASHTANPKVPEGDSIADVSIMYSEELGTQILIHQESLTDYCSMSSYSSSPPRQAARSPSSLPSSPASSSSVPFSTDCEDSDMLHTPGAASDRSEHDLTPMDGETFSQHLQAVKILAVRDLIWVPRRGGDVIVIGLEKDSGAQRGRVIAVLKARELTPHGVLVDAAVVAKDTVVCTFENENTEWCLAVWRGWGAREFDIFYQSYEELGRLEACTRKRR

LRRK1 WT [6] = molecular target: T3, LRRK1 WT; assay: In vitro kinase assay: LRRK1 autophosphorylation

Compound	LRRK2 autophosphorylation Average ± SEM (LRRK2 WT [1])	MBP phosphorylation Average ± SEM (LRRK2 WT [2])	also measured
Nc1ncnc2c1c(I)cn2[C@@H]1O[C@H](CO)[C@@H](O)[C@H]1O [Inhibitor 49, 5-iodo-tubercidin, reference compound]	29.4 ± 14.7 % of control	39.3 ± 9.9 % of control	IC50 (LRRK2 WT [1]; Table 2): 3.21 µM; effect on LRRK2 autophosphorylation (LRRK2 WT [1]): substantially inhibited; IC50 (LRRK2 WT [2]; Table 2): 14.8 µM; effect on LRRK2-mediated phosphorylation of MBP (LRRK2 WT [2]): substantially inhibited; IC50 (LRRK2 G2019S [3]; Table 2): 3.41 µM; IC50 (LRRK2 G2019S [4]; Table 2): 4.23 µM
Cn1cc(C2=C(c3cn(CCCSC(=N)N)c4ccccc34)C(=O)NC2=O)c2ccccc21 [Inhibitor 33, Ro31-8220, reference compound]	5.4 ± 3.0 % of control	26.0 ± 38.5 % of control	IC50 (LRRK2 WT [1]; Table 2): 1.64 µM; effect on LRRK2 autophosphorylation (LRRK2 WT [1]): substantially inhibited; IC50 (LRRK2 WT [2]; Table 2): 0.05 µM; effect on LRRK2-mediated phosphorylation of MBP (LRRK2 WT [2]): substantially inhibited; IC50 (LRRK2 G2019S [3]; Table 2): 5.16 µM; IC50 (LRRK2 G2019S [4]; Table 2): 4.51 µM
CN(C)CCCn1cc(C2=C(c3c[nH]c4ccccc34)C(=O)NC2=O)c2ccccc21 [Inhibitor 31, GP109203X, reference compound]	16.1 ± 8.8 % of control	13.0 ± 8.2 % of control	IC50 (LRRK2 WT [1]; Table 2): 5.27 µM; effect on LRRK2 autophosphorylation (LRRK2 WT [1]): substantially inhibited; IC50 (LRRK2 WT [2]; Table 2): 2.19 µM; effect on LRRK2-mediated phosphorylation of MBP (LRRK2 WT [2]): substantially inhibited; IC50 (LRRK2 G2019S [3]; Table 2): 2.62 µM; IC50 (LRRK2 G2019S [4]; Table 2): 17 µM
Raf inhibitor IV	–	–	selectivity for LRRK2 kinase activity (LRRK2 WT [1]; LRRK2 versus LRRK1 kinase activity): relatively selective; IC50 (LRRK2 WT [1]; Table 3): 5.43 µM; effect on LRRK1 MBP phosphorylation (LRRK1 WT [5]): minimal to no effect; IC50 (LRRK1 WT [5]; Table 3, mean of three experiments): 21.5 µM; IC50 (LRRK2 WT [2]; Table 3): 3.61 µM; effect on LRRK1 autophosphorylation (LRRK1 WT [6]): minimal to no effect; IC50 (LRRK2 G2019S [3]; Table 3): 6.51 µM; IC50 (LRRK2 G2019S [4]; Table 3): 3.94 µM
COc1c(C=O)c(O)cc2c1C(=O)c1ccccc1C2=O [Inhibitor 22, Damnacanthal, reference compound]	34.7 ± 6.2 % of control	35.7 ± 10.3 % of control	IC50 (LRRK2 WT [1]; Table 2): 19.1 µM; effect on LRRK2 autophosphorylation (LRRK2 WT [1]): substantially inhibited; IC50 (LRRK2 WT [2]; Table 2): 7.81 µM; effect on LRRK2-mediated phosphorylation of MBP (LRRK2 WT [2]): substantially inhibited; IC50 (LRRK2 G2019S [3]; Table 2): 9.45 µM; IC50 (LRRK2 G2019S [4]; Table 2): 5.25 µM
N#CC(C#N)=C(N)/C(C#N)=C/c1cc(O)c(O)c(O)c1 [Inhibitor 15]	79 ± 49.6 % of control	105.1 ± 19.1 % of control	–
Cc1ccc(NC(=O)c2cccc(N(C)C)c2)cc1NC(=O)c1ccc(O)cc1 [Inhibitor 53]	89.2 ± 2.7 % of control	152.6 ± 38.0 % of control	–
Cc1cc(O)c2c(=O)c3c(O)cc(O)c4c5c(O)cc(O)c6c(=O)c7c(O)cc(C)c8c1c2c(c34)c(c78)c65 [Inhibitor 32]	57.4 ± 30.1 % of control	160.9 ± 12 % of control	–
COc1ccc(S(=O)(=O)N(CCO)c2ccccc2CN(C)C/C=C/c2ccc(Cl)cc2)cc1 [Inhibitor 41, KN-93]	–	–	effect on LRRK1 MBP phosphorylation (LRRK1 WT [5]): no effect; effect on LRRK2-mediated phosphorylation of MBP (LRRK2 WT [2]): no effect; effect on LRRK1 autophosphorylation (LRRK1 WT [6]): no effect
O=P(O)(O)Cc1ccccc1 [Inhibitor 74]	68.3 ± 1.85 % of control	121.8 ± 23.6 % of control	–
NCCNS(=O)(=O)c1cccc2cnccc12 [Inhibitor 5]	53.8 ± 34.5 % of control	58.3 ± 22.9 % of control	–
CC[C@@H](CO)Nc1nc(NCc2ccccc2)c2ncn(C(C)C)c2n1 [Inhibitor 48]	69.4 ± 30.1 % of control	100.1 ± 41.5 % of control	–
COc1cccc(-c2cc(=O)c3ccccc3o2)c1N [Inhibitor 1]	77.9 ± 30.6 % of control	77.5 ± 55.0 % of control	–
Oc1cc(O)cc(/C=C/c2ccc(O)c(O)c2)c1 [Inhibitor 23]	87 ± 38.6 % of control	93.0 ± 17.8 % of control	–
O=C(O)c1cc(N(Cc2ccccc2O)Cc2cc(O)ccc2O)ccc1O [Inhibitor 9]	84.3 ± 21.1 % of control	65.2 ± 35.5 % of control	–
Oc1ccc(-c2nc(-c3ccc(F)cc3)c(-c3ccncc3)[nH]2)cc1 [Inhibitor 51]	64.9 ± 20.9 % of control	125.5 ± 52.6 % of control	–
OC[C@@H]1O[C@H](n2cnc3cc(Cl)c(Cl)cc32)[C@@H](O)[C@H]1O [Inhibitor 66]	56.4 ± 12.9 % of control	120.8 ± 78.0 % of control	–

Second part, led by results:

LRRK2 autophosphorylation Average ± SEM (LRRK2 WT [1])	MBP phosphorylation Average ± SEM (LRRK2 WT [2])	Compound	also measured
18.3 ± 22.8 % of control	31.2 ± 12.1 % of control	O=C1c2ccccc2-c2n[nH]c3cccc1c23 [Inhibitor 68, SP600125, reference compound]	IC50 (LRRK2 WT [1]; Table 2): 3.71 µM; effect on LRRK2 autophosphorylation (LRRK2 WT [1]): substantially inhibited; IC50 (LRRK2 WT [2]; Table 2): 3.1 µM; effect on LRRK2-mediated phosphorylation of MBP (LRRK2 WT [2]): substantially inhibited; IC50 (LRRK2 G2019S [3]; Table 2): 5 µM; IC50 (LRRK2 G2019S [4]; Table 2): 3.37 µM
61.2 ± 9.6 % of control	131.7 ± 34.2 % of control	COc1cc2ncc(-c3ccccc3)nc2cc1OC [Inhibitor 55]	–
104.6 ± 26.6 % of control	164.7 ± 40.0 % of control	COc1ccc(S(=O)(=O)N(CCO)c2ccccc2CN(C)C/C=C/c2ccc(Cl)cc2)cc1 [Inhibitor 41]	–
103.0 ± 4.4 % of control	148.9 ± 71.4 % of control	O=C(O)c1cc(NCc2cc(O)ccc2O)ccc1O [Inhibitor 39, 2-hydroxy-5-(2,5-dihydroxybenzyl-amino) benzoic acid]	–
95.3 ± 5.9 % of control	77.2 ± 86.4 % of control	Nc1ncc2[nH]cnc2n1 [Inhibitor 44, 2-aminopurine]	–
71.6 ± 2.1 % of control	120.2 ± 39.6 % of control	O=S(=O)(c1cccc2c(Cl)cccc12)N1CCCNCC1 [Inhibitor 43]	–
75.9 ± 3.9 % of control	83.2 ± 50.5 % of control	Brc1ccc([C@H]2CN3CCSC3=N2)cc1 [Inhibitor 75]	–
68.5 ± 1.5 % of control	101.3 ± 25.3 % of control	CC(C)c1cc(/C=C(\C#N)C(=O)NCCCc2ccccc2)cc(C(C)C)c1O [Inhibitor 63]	–
72.5 ± 2.1 % of control	125.3 ± 45.6 % of control	Cn1cnc2c(NCc3ccccc3)nc(NCCO)nc21 [Inhibitor 46]	–
75.1 ± 12.8 % of control	124.8 ± 23.5 % of control	Cc1ccc(S(=O)(=O)/C=C/C#N)cc1 [Inhibitor 65]	–
37.5 ± 13.9 % of control	112.8 ± 34.9 % of control	CN(C)c1ccc(/C=C2\C(=O)Nc3ccccc32)cc1 [Inhibitor 54]	–
82.0 ± 4.2 % of control	110.3 ± 28.4 % of control	O=C1Nc2ccccc2/C1=C1\Nc2ccccc2C1=O [Inhibitor 69]	–
